This is an account of results in US12433875B2, “(R)-4-(1-(6-(4-(trifluoromethyl)benzyl)-6-azaspiro[2.5]octane-5-carboxamido)-cyclopropyl) benzoic acid or its salt also in polymorphic form a for use in the prevention of heterotopic ossification” (ROTTAPHARM BIOTECH S.R.L., priority 2019, dated 2025).

Each structure is given as a SMILES string.

Assay [1] concerns Male Lewis rats (CIA model, osteophyte formation). The assay is described as follows: CIA model in rats, micro-CT study of bone structure. Format: in vivo, rat. The method, then:
Male Lewis rats were immunized and treated exactly as described in example 2.
Specifically, the animals were divided in four groups: controls, vehicle treated CIA rat, and two groups administered with a dose of 10 mg/kg and 30 mg/kg, respectively, of the compound of the invention.
After 14 days of treatment, bone samples corresponding to hind limbs (left and right) of arthritic rats or sham ones were sent for micro-CT analysis to Atlantic Bone Screen (ABS, 3 rue Aronnax, 44800 SAINT-HERBLAIN France). Bone samples were sent to ABS facilities after they have been removed from soft tissue and fixed in formalin solution within a maximum of 1 week.
40 samples were analyses blindly. Then, the unmask data were analyzed to compare the different groups:
Analyses of calcaneus and knee density and microarchitectural characteristics were performed using the high-resolution X-ray micro-CT. […] To quantitatively compare the four groups, the hind paw calcaneus, knee (proximal tibial and distal femoral epiphysis) and proximal tibial metaphysis were identified as the anatomical sites for micro-CT analysis. The bone mineral density (BMD), bone volume ratio (BV/TV), bone surface (BS) and bone surface-volume ratio (BS/BV) was calculated while including calcaneus, proximal tibial and distal femoral epiphysis (cortical bone, cancellous bone and potential osteophytes).

Assay [2] relates to human osteoblasts from patients with Osteoarthritis. The assay is described as follows: Pathological osteoblast proliferation induced by IL-1β, MTT assay. The settings on record: IL-1β 2 ng/ml; time course 24 h, 6, 9 and 14 days; low concentrations; FIG. 11. Type of assay: cell-based. The method, then:
Human osteoblasts were purified from material obtained from patients undergoing knee replacement. Trabecular bone cells were isolated by spontaneous outgrowth culture methods. Purified osteoblasts were stimulated with IL-1β 2 ng/ml. Osteoblast proliferation was studied by MTT analysis in time course experiments (24 h, 6, 9, and 14 days). The form A of the sodium salt of (R)-4-(1-(6-(4-(trifluoromethyl)benzyl)-6-azaspiro[2.5]octane-5-carboxamido)cyclopropyl)benzoic acid resulted to be extremely effective in preventing in vitro osteoblast proliferation stimulated by IL1b.
This model has been performed to understand if the compound of the invention could correct the pathological hyperproliferation of osteoblasts taken from patients suffering from degenerative pathologies eventually resulting in a total joint replacement surgical procedure.
Trabecular bone of the tibial plateau was obtained from patients with Osteoarthritis (OA) undergoing joint replacement surgery. This material was purchased from Alphenyx (Marseille, France). […] The cell proliferation was analysed in a time course protocol by MTT assay. […] MTT was a tetrazolium salt especially useful to quantify living metabolically active cells. […] The plate was then read at λ=540 nm. […]
On the technique in general: Tetrazolium dyes change colour on reduction, which living cells bring about.

For assay [3], the system named is Sprague Dawley male rats (AIA model). Put plainly: Adjuvant Induced Arthritis (AIA) in rats, histology of pathological bone apposition. Format: in vivo, rat. The settings on record: 10 mg/kg orally once a day for 15 days, FIG. 10. From the text:
Adjuvant Induced Arthritis (AIA) in rats is a widely studied and accepted animal model of inflammatory arthritis driven by Tcells. In experimental autoimmune diseases, CFA mediated activation of the innate immune compartment is important not only by regulating the early induction phase, but also by providing a surplus of effector and regulator cells in the late phase. Also in this model it was possible to appreciate a relevant pathological apposition of new bone. This paradigm was used as a third model to further confirm the effect of the compound of the invention as an effective inhibitor of pathological heterotopic ossification.
Sprague Dawley male rats (Charles River) were immunized by intradermal injection at the base of the tail with 150 μl of complete Freund's adjuvant (CFA) containing 10 mg/ml of heat killed Mycobacterium tuberculosis (Chondrex code 7027) or with incomplete Freund's adjuvant (IFA) (sham n=10). Ten days after immunization arthritis developed in all animals, but not in the sham-group; edema and clinical scores were assessed and the animals were then randomized and assigned to treatment groups (n=9-12) as follows: vehicle, the compound of the invention 10 mg/kg or 30 mg/kg. The compound of the invention was administered orally once a day for 15 days. […]

As for `O=C([O-])c1ccc(C2(NC(=O)[C@H]3CC4(CCN3Cc3ccc(C(F)(F)F)cc3)CC4)CC2)cc1.[Na+]` [Form A, sodium (R)-4-(1-(6-(4-(trifluoromethyl)benzyl)-6-azaspiro[2.5]octane-5-carboxamido)cyclopropyl)benzoate], the “osteophytes at calcaneus and knee (micro-CT)” value in assay [1] (10 and 30 mg/kg, 14 days of treatment, FIG. 8) is recorded as “the osteophytes disappeared at both site”. In addition, the “optimal dose (maximal activity) against osteophyte formation” value in assay [1] (micro-CT, maintained at 30 mg/kg) amounted to 10 mg/kg. Also, the “osteoblast proliferation (MTT)” value in assay [2] is given as “able to dose-dependently counteract osteoblast proliferation”. The “pathological bone apposition (histology)” value in assay [3] is given as “completely abrogated the pathological bone apposition in almost all animals”.
